Source: patent publication US20240307372A1, “COMPOSITIONS AND METHODS TO IMPROVE BENEFIT OF SUBOPTIMALLY ADMINISTERED THERAPEUCTICS FOR THE TREATMENT OF BENIGN AND NEOPLASTIC DISEASES, INFECTIONS, INFLAMMATORY, METABOLIC AND IMMUNOLOGIAL DISEASES” (priority 2023, published 2024)
Several values for one entry are separate records, joined by “and”; a condition that tells them apart may be missing. Equal entries are not always repeated. Where two headings read alike, the source gives them in different places.

Tests used:
β-catenin = β-catenin protein level in K562 cell extracts by western blot; format: cell-based, human; details: for β-catenin level in K562 cells: 0.1-40 μM, 24 hours
Procedure: The second portion was to quantitate the levels of β-catenin protein by western blot. TET's ability in an in vitro assay to reduce β-catenin expression was tested in human erythroleukemic (K562) cells. Testing was conducted by Alamo Laboratories, San Antonia, TX.
(§1) Briefly, the method to quantitate β-catenin protein by western blot was as follows: Extracts of K562 cells (untreated and treated with various concentrations of tetrandrine) were concentrated to 0.4 ml using Centricon-3 column to yield a protein concentration of approximately 2 mg/ml. Samples were mixed with 5× Laemmli buffer and loaded on 8-16% Tris-Glycine gradient gel, then polyacrylamide gel electrophoresis (PAGE) was run at 85 volts for 100 minutes at 6° C. and proteins were transferred on PVDF membrane at 70 Volts for 85 minutes at 8° C. Membrane was blocked with 5% milk in Tris-buffered Saline containing 0.1% TW-20 (TBST). Membrane was incubated with primary antibody for 18 hours at 4° C. followed by 3 washes, 5 minutes each, with TBST and incubated with secondary antibody in TBST for 2 hours at 25° C. The membrane was washed again with TBST as described above and incubated with ECL-2 substrate for 5 minutes and scanned on Kodak Image Station. After scan, blot was stripped of primary and secondary antibodies and re-probed with anti-beta Actin antibody as described above. Protein bands in WB images were quantitated using Molecular Imaging software pack MIS-4.0 software and tabulated in Excel spreadsheet.

[1] = IV, cited from earlier work
[2] = system: CML colonies (secondary clonal growth); assay: Replating assay, secondary clonal growth of CML colonies; format: cell-based, human; details: colonies from original cultures with ES-3000 @10 μM
[3] = system: leukemic cells and leukemic stem cells; assay: BCR-ABL CML mouse model (bone marrow transplantation), oral treatment; format: in vivo; details: mice, orally, 150 mg/kg, 1×/day
Procedure: In an in vivo model, the effectiveness of Tetrandrine was tested on CML stem cells. The objective of the study was to determine the survival of leukemic cells and leukemic stem cells in response to the treatment with Tetrandrine. After priming donor C57BL/6 (B6) mice with intravenous injections of 5-fluorouracil for four days, bone marrow cells were harvested from femurs and tibia, then transfected twice with retrovirus containing MSCV-BCR-ABL-IRES-GFP. Recipient mice were lethally irradiated by two doses of 550 cGy before bone marrow transplantation by intravenous injection with 5×10^5 cells/mouse. Blood from recipient mice was tested for disease induction one week after transduction by FACS analysis for GFP (FIG. 7A). […] Treatments started on day 8 after bone marrow transplantation (FIG. 7B).

Pgp = Pgp (Homo sapiens, UniProt P08183); details: cited from earlier work
[4] = system: human chronic myeloid leukemia (CML) progenitors; assay: Colony forming cell (CFC) assay on CML patient bone marrow cells, methylcellulose-based medium; details: for BFU-E colonies / CFU-E colonies / Total Erythroid colonies: no Epo
[5] = system: human breast, colon carcinoma, and hepatoma cell lines; details: read-out: IC50 range; cited from earlier work
[6] = cited from earlier work
leukemia cell lines = details: cited from earlier work
[7] = system: colorectal (CT-26) xenografts; details: colorectal (CT-26) mouse xenografts; cited from earlier work
beta-Actin = beta-Actin level in K562 cell extracts by western blot; format: cell-based, human; details: K562 cells treated with up to 40 uM
Procedure: as §1

CAMKII gamma = biological target: T1, CAMKII gamma (Homo sapiens, UniProt Q13555); assay: CAMKII gamma kinase activity, ADP Glo (Promega); format: biochemical; details: for CAMKII gamma kinase activity inhibition (in words): 10 or 50 uM ATP
T1 construct: purchased Promega V3531
Procedure: An enzymatic study was conducted to evaluate the inhibition of CAMKII gamma by ES-3000 (Tetrandrine). CAMKII gamma kinase activity was measured using […] purchased from Promega following the Promega protocol. CAMKII enzyme system purchased from Promega (V3531). ADP Glo was used for detection. Assay optimized for linearity of protein and time. Conditions for inhibitor screening 25 ng CAMKII, 20 min. incubations, inhibitor or DMSO (5%) at RT in 20 uL total volume. Inhibitor, ATP (10 or 50 uM), substrates and buffer added to tubes and reactions started with enzyme. […] Reactions terminated at 20 min. by adding ADP Glo reaction following manufactures instructions. All reactions were done in duplicate. Calculations of percent (%) inhibition determined by dividing the mean activity at each condition by the mean of the DMSO control times 100.

T1 sequence (Q13555 whole entry): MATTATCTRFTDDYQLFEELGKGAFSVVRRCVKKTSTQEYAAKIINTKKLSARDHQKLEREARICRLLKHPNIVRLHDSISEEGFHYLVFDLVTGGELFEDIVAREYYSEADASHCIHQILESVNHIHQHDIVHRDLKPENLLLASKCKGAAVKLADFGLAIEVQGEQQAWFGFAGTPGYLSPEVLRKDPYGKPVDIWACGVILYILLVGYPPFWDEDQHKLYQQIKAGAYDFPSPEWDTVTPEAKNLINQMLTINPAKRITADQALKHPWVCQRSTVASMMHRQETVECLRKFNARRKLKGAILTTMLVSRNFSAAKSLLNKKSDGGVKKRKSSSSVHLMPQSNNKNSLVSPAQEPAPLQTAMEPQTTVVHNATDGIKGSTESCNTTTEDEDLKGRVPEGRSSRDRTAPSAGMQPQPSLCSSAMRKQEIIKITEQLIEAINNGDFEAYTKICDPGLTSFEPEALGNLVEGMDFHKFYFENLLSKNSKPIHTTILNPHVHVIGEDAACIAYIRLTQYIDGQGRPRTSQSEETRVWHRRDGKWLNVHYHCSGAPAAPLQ
Chain of Pgp (P08183 whole entry): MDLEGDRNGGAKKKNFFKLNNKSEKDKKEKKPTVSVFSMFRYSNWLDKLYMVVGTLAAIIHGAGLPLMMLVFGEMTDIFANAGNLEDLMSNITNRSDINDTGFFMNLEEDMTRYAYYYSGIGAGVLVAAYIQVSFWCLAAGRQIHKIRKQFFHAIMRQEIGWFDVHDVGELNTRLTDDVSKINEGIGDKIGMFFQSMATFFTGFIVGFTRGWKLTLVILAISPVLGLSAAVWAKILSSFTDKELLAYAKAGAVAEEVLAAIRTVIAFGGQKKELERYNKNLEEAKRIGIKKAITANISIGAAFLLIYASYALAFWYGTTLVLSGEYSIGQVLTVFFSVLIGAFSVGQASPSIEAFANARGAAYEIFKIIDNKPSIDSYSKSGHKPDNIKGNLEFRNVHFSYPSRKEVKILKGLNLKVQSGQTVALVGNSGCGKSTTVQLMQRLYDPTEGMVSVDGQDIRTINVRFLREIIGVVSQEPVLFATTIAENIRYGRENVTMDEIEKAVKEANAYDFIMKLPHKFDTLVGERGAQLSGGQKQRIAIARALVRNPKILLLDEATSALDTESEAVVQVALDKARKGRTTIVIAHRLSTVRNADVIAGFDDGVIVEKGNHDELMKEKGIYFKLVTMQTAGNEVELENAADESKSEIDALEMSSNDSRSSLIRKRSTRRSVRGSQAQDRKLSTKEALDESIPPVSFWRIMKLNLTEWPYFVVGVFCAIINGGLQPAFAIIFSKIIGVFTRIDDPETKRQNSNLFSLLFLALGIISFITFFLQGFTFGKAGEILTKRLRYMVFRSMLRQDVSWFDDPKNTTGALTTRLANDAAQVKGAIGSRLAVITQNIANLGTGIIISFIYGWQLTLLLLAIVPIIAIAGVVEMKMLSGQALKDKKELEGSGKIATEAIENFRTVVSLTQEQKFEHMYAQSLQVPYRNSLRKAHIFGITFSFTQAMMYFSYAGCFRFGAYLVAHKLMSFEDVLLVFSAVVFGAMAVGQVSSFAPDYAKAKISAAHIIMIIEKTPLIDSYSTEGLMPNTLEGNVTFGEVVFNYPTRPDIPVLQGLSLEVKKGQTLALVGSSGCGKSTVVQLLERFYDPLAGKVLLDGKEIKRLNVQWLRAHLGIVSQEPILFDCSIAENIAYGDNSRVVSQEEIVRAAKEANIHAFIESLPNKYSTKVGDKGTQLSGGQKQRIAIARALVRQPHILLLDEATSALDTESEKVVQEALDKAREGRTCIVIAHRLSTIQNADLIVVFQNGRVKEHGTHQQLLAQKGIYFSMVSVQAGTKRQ

Substance: 6,6′,7,12-tetramethoxy-2,2′-dimethyl-berbaman [ES-3000]
- β-catenin level in K562 cells (β-catenin; listed as TET): reduced β-catenin
- β-catenin level in K562 cells (β-catenin; listed as Tetrandrine): lowers the β-catenin level in K562 cells in a dose dependent manner
- β-catenin band in western blot (β-catenin; K562 cells treated with 0 to 10 uM): A clear β-catenin band was evident
- β-catenin band in western blot (β-catenin; K562 cells treated with 20 and 40 uM): a convincing β-catenin band was absent
- beta-catenin level (quantitation of protein bands) (β-catenin; K562 cells treated with >10 uM): significantly less
- recommended dose for a Phase II study ([1]; daily ×5, repeated every 2 weeks): 200 mg/m2
- recommended dose for a Phase II study ([1]; single dose repeated weekly): 300 mg/m2
- average CFC per well (secondary growth) [2]: three
- wells supported secondary growth with one or more colony [2]: 54.2%
- inhibiting the development of circulating leukemic cells ([3]; listed as TET): reduced the development of leukemic cells in the peripheral blood
- inhibiting the development of leukemic stem cells ([3]; listed as TET): reduced the development of
- inhibiting the development of circulating leukemic cells ([3]; listed as Tetrandrine): superior to Imatinib
- inhibiting the development of leukemic stem cells ([3]; listed as Tetrandrine): superior to Imatinib
- Pgp substrate (Pgp): not a substrate of Pgp
- function of Pgp (Pgp): directly inhibits the function of Pgp in a dose-dependent manner
- CFU-GM colonies ([4]; 0.1 μM): 55 ± 5
- Total CFC ([4]; 0.1 μM): 88 ± 8
- BFU-E colonies ([4]; 0.1 μM): 22 ± 4
- CFU-E colonies ([4]; 0.1 μM): 11 ± 1
- Total Erythroid colonies ([4]; 0.1 μM): 33 ± 3
- CFU-GM colonies ([4]; 1 μM): 54 ± 2
- Total CFC ([4]; 1 μM): 86 ± 4
- BFU-E colonies ([4]; 1 μM): 22 ± 4
- CFU-E colonies ([4]; 1 μM): 10 ± 2
- Total Erythroid colonies ([4]; 1 μM): 33 ± 3
- CFU-GM colonies ([4]; 3 μM): 52 ± 5
- Total CFC ([4]; 3 μM): 75 ± 6
- BFU-E colonies ([4]; 3 μM): 14 ± 3
- CFU-E colonies ([4]; 3 μM): 9 ± 2
- Total Erythroid colonies ([4]; 3 μM): 23 ± 2
- IC50 ([4]; read-out: Erythroid IC50 ± 95% CI, Human progenitors): 3.12 ± 0.01 µM
- IC50 [5]: 1.53 to 10.4 µM
- protein binding [6]: highly protein bound
- 50% growth inhibition (Log GI50) (leukemia cell lines; NCI 60 cell line screen): −5.0 to −6.6
- GI50 (leukemia cell lines; read-out: 50% growth inhibition (GI50), NCI 60 cell line screen): 0.25 to 10 µM
- tumor growth [7]: reduced tumor growth by inducing apoptosis
- beta-Actin level (quantitation of protein bands) (beta-Actin): not affected significantly
- % inhibition (CAMKII gamma; 30 uM, 10 uM ATP): 29.1% and 29%
- CamKIIγ activity, mean (CAMKII gamma; 30 uM, 10 uM ATP): 3.09 units
- CamKIIγ activity, units (duplicates) (CAMKII gamma; 30 uM, 10 uM ATP): 2.75 units and 3.43 units
- kinase activity, % of DMSO control (CAMKII gamma; 30 uM, 10 uM ATP): 71%
- % inhibition (CAMKII gamma; 30 uM, 50 uM ATP): 15%
- CamKIIγ activity, mean (CAMKII gamma; 30 uM, 50 uM ATP): 10.55 units
- CamKIIγ activity, units (duplicates) (CAMKII gamma; 30 uM, 50 uM ATP): 10.4 units and 10.7 units
- kinase activity, % of DMSO control (CAMKII gamma; 30 uM, 50 uM ATP): 85%
- % inhibition (CAMKII gamma; 100 uM, 10 uM ATP): 34.2% and 34%
- CamKIIγ activity, mean (CAMKII gamma; 100 uM, 10 uM ATP): 2.87 units
- CamKIIγ activity, units (duplicates) (CAMKII gamma; 100 uM, 10 uM ATP): 2.5 units and 3.24 units
- kinase activity, % of DMSO control (CAMKII gamma; 100 uM, 10 uM ATP): 66%
- % inhibition (CAMKII gamma; 100 uM, 50 uM ATP): 36%
- CamKIIγ activity, mean (CAMKII gamma; 100 uM, 50 uM ATP): 7.955 units
- CamKIIγ activity, units (duplicates) (CAMKII gamma; 100 uM, 50 uM ATP): 8.81 units and 7.1 units
- kinase activity, % of DMSO control (CAMKII gamma; 100 uM, 50 uM ATP): 64%
- % inhibition (CAMKII gamma; 250 uM, 10 uM ATP): 90.6% and 91%
- CamKIIγ activity, mean (CAMKII gamma; 250 uM, 10 uM ATP): 0.41 units
- CamKIIγ activity, units (duplicates) (CAMKII gamma; 250 uM, 10 uM ATP): 0.34 units and 0.48 units
- kinase activity, % of DMSO control (CAMKII gamma; 250 uM, 10 uM ATP): 9%
- CAMKII gamma kinase activity inhibition (in words) (CAMKII gamma): inhibited CAMKII gamma kinase activity in a dose dependent manner
- CAMKII gamma kinase activity inhibition (in words) (CAMKII gamma; listed as TET): inhibited the activation of CaMKIIγ in a dose dependent manner
